Literature values as cited in US20080146525A1 (priority 2006, published 2008).

Columns and labels:
[1] = animal models and humans
[2] = healthy adolescents
[3] = administered orally
[4] = test system: extra-cellular acetylcholine and dopamine levels; settings: versus compositions commonly used to treat Alzheimer's disease; rats
neurotransmitters = settings: humans

In the case of `CC(=C(CCOC(=O)C(C)C)SSC(CCOC(=O)C(C)C)=C(C)N(C=O)Cc1cnc(C)nc1N)N(C=O)Cc1cnc(C)nc1N` (stereo in doubt) [Sulbutiamine], the memory effect (rats) is listed as “memory enhancing effects”.

For `C/C=C1\[C@H]2C=C(C)C[C@]1(N)c1ccc(=O)[nH]c1C2` [Huperzine-A], the “effect on memory deficits” value [1] is listed as “improves memory deficits”, the memory and learning [2] is listed as “improve memory and learning” and the bioavailability [3] is listed as “good bioavailability”. The “ability to increase extra-cellular acetylcholine and dopamine levels” value [4] was “greater ability to increase extra-cellular acetylcholine and dopamine levels” and the “amount of nerve growth factor” value (nerve growth factor) was “increase the amount of nerve growth factor”.

For `N[C@@H](Cc1ccc(O)cc1)C(=O)O` [Tyrosine], the “neurotransmitters after oral administration” value (neurotransmitters) is listed as “increased of neurotransmitters”.
